Experimental data as given in ChEMBL document CHEMBL4190375, “Current Insights of BRAF Inhibitors in Cancer” (J Med Chem, 2018).

Tests used:
[1] = Cytotoxicity against human PLGA cells harboring BRAF V600E mutant after 96 hrs by CellTiter-Glo assay; type: functional, cell-based
[2] = Tmax in human; type: ADME, organism-based; conditions: in vivo
[3] = target: T1, Serine/threonine-protein kinase B-raf (Homo sapiens, UniProt P15056, V600E); experiment: Inhibition of BRAF V600E mutant in human A375 cells assessed as reduction in ERK phosphorylation; type: cell-based
[4] = target: T1, Serine/threonine-protein kinase B-raf; experiment: Inhibition of BRAF V600E mutant (unknown origin)
A-375 [5] = experiment: Cytotoxicity against human A375 cells harboring BRAF V600E mutant after 72 hrs by CellTiter-Glo assay; type: functional, cell-based; conditions: A-375, 72 h
[6] = target: T1, Serine/threonine-protein kinase B-raf; experiment: biochemical
A-375 [7] = experiment: Cytotoxicity against human A375 cells harboring BRAF V600E mutant; type: functional, cell-based
[8] = target: T1, Serine/threonine-protein kinase B-raf
[9] = target: T1, Serine/threonine-protein kinase B-raf; remark: listed apart in the source
[10] = target: T1, Serine/threonine-protein kinase B-raf; remark: listed apart in the source
[11] = target: T2, Serine/threonine-protein kinase B-raf (Homo sapiens, UniProt P15056)
[12] = target: T3, RAF proto-oncogene serine/threonine-protein kinase (Homo sapiens, UniProt P04049); experiment: Inhibition of CRAF (unknown origin)
[13] = target: T4, Serine/threonine-protein kinase A-Raf (Homo sapiens, UniProt P10398); experiment: Inhibition of ARAF (unknown origin)
T4 sequence (P10398 whole entry): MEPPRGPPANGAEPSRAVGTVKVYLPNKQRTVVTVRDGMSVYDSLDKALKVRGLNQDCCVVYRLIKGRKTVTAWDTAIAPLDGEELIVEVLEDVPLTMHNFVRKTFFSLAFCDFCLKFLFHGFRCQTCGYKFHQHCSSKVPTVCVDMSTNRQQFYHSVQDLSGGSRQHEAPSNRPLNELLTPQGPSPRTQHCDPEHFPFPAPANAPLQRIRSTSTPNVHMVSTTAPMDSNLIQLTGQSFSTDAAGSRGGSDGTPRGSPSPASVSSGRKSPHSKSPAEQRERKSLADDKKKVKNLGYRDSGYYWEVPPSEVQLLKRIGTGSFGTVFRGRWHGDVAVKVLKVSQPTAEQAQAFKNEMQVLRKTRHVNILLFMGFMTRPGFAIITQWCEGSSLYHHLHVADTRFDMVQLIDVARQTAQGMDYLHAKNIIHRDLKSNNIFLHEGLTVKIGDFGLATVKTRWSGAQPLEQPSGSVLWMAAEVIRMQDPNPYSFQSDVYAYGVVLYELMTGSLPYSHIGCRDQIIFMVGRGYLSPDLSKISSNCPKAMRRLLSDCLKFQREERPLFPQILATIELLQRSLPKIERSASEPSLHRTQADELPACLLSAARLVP

[14] = Cytotoxicity against human HCC364 cells harboring p61 V600E mutant; type: functional, cell-based
WM 266-4 = experiment: Cytotoxicity in human WM266.4 cells after 72 hrs by CellTiter-Glo assay; type: functional, cell-based; conditions: WM 266-4, 72 h
A-375 [15] = experiment: Cytotoxicity against human A375 cells harboring BRAF V600E mutant after 96 hrs by CellTiter-Glo assay; type: functional, cell-based; conditions: A-375, 96 h
SK-MEL-28 = experiment: Cytotoxicity against human SK-MEL-28 cells after 72 hrs by CellTiter-Glo assay; type: functional, cell-based; conditions: SK-MEL-28, 72 h
[16] = Half life in human; type: ADME, organism-based; conditions: in vivo
A-375 [17] = experiment: Cytotoxicity against human A375 cells harboring BRAF V600E mutant after 48 hrs by CellTiter-Glo assay; type: functional, cell-based; conditions: A-375, 48 h
SK-MEL-30 = experiment: cells; conditions: Homo sapiens, SK-MEL-30, 48 h
SK-MEL19 = experiment: Cytotoxicity against human SK-MEL-19 cells harboring BRAF mutant after 3 days; type: functional, cell-based; conditions: SK-MEL19, 72 h
[18] = target: T2, Serine/threonine-protein kinase B-raf; experiment: Inhibition of BRAF in human Jurkat T cells assessed as reduction in ERK phosphorylation; type: cell-based
[19] = target: T1, Serine/threonine-protein kinase B-raf; experiment: Inhibition of BRAF V600E mutant (unknown origin) by Z'-LYTE assay
[20] = target: T3, RAF proto-oncogene serine/threonine-protein kinase; experiment: Inhibition of CRAF (unknown origin) by Z'-LYTE assay
A-375 [21] = experiment: Cytotoxicity against human A375 cells harboring BRAF V600E mutant after 72 hrs by alamar blue assay; type: functional, cell-based; conditions: A-375, 72 h
[22] = target: T1, Serine/threonine-protein kinase B-raf; experiment: Inhibition of BRAF V600E mutant in human A375 cells assessed as reduction in ERK phosphorylation after 2 hrs by ELISA; type: cell-based
[23] = target: T2, Serine/threonine-protein kinase B-raf; experiment: Inhibition of wild type BRAF (unknown origin) by Z'-LYTE assay

T1 sequence (P15056 2-766 V600E limits assumed): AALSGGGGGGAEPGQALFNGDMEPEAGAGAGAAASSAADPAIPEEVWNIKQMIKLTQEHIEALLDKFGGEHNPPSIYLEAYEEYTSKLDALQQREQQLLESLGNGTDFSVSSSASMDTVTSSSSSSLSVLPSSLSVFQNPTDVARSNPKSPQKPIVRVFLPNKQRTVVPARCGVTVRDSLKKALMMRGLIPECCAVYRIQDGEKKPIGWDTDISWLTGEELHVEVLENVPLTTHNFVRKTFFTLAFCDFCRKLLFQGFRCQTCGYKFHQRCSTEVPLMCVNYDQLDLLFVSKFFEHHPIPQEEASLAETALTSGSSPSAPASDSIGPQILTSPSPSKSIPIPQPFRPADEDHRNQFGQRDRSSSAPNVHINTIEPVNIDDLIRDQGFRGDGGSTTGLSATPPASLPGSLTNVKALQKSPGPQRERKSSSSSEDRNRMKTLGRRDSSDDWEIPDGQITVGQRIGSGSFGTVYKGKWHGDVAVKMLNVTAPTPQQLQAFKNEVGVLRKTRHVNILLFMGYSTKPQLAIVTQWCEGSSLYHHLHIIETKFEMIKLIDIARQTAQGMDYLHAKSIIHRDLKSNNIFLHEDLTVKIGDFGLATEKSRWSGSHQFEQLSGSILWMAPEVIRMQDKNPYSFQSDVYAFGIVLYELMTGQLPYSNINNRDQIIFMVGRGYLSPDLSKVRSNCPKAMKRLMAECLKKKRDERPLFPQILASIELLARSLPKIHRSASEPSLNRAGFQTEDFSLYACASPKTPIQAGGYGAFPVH
T2 sequence (P15056 whole entry): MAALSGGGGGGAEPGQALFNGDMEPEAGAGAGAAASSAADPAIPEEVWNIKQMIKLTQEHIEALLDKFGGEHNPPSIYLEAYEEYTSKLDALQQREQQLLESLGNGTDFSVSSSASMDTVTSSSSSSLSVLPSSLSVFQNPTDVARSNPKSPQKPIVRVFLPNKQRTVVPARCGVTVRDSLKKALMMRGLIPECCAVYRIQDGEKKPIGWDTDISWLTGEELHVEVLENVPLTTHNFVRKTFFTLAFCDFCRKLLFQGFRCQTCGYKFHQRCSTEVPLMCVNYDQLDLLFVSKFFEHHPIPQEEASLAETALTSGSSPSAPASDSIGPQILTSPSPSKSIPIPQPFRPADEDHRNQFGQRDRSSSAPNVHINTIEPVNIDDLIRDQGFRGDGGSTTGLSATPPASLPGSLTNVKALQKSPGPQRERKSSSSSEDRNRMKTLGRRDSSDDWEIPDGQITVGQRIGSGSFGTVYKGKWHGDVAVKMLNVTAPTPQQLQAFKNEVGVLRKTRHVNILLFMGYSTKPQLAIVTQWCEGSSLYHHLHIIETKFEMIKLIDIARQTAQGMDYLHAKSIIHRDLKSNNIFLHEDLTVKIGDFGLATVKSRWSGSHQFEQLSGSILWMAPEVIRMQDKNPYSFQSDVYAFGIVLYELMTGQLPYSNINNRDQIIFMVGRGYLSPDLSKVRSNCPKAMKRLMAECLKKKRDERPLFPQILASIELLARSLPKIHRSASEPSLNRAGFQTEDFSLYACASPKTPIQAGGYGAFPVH
T3 sequence (P04049 whole entry): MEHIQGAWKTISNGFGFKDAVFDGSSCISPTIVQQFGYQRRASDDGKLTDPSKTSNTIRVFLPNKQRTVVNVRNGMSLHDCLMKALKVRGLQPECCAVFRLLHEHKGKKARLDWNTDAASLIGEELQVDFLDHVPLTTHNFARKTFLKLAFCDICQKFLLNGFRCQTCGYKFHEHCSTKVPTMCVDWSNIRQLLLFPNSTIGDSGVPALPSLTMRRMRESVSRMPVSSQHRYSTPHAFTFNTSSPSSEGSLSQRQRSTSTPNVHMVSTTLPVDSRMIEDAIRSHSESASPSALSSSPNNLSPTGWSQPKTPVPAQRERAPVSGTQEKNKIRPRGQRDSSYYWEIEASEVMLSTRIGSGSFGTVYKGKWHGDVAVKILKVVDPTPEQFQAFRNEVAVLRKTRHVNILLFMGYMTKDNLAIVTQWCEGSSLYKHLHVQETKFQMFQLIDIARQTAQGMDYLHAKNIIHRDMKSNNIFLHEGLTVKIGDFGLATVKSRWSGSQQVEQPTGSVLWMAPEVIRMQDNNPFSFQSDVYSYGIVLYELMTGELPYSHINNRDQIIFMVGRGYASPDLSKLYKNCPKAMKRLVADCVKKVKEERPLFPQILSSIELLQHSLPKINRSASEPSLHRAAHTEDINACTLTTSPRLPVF

## C[C@H](NC(=O)c1ncnc(N)c1Cl)c1ncc(C(=O)Nc2cc(C(F)(F)F)c(Cl)cn2)s1
[1]
  IC50: 248 nM
[2]
  Tmax: 2 h

## CSc1cc(Oc2ccnc3[nH]c(=O)cnc23)ccc1NC(=O)Nc1cc(C(C)(C)C)nn1-c1ccccc1
[3]
  IC50: 5 nM
[4]
  IC50: 15 nM
A-375 [5]
  IC50: 10 nM

## CCN(C)S(=O)(=O)Nc1ccc(F)c(C(=O)c2c[nH]c3ncc(-c4cnc(C5CC5)nc4)cc23)c1F
[6]
  IC50: 4.2 nM
A-375 [7]
  IC50: 170 nM
[8]
  IC50: 16 nM

## O=C1CCc2c(Oc3ccc4c(c3)[C@H]3[C@@H](O4)[C@@H]3c3nc4ccc(C(F)(F)F)cc4[nH]3)ccnc2N1
[9]
  IC50: 23 nM
[10]
  IC50: 64 nM
[11]
  IC50: 32 nM
[12]
  IC50: 7 nM
A-375 [5]
  IC50: 200 nM
[13]
  IC50: 5.6 nM

## O=C(c1c(F)ccc(NS(=O)(=O)N2CC[C@H](F)C2)c1F)c1c[nH]c2ncc(-c3cnc(C4CC4)nc3)cc12
[14]
  IC50: 800 nM
[6]
  IC50: 3.8 nM
[8]
  IC50: 3.5 nM

## CC(C)(N)c1cc(C(=O)NC2CCc3ccc(Oc4ccnc5c4CCC(=O)N5)cc3C2)cc(C(F)(F)F)c1 (stereo not given)
A-375 [5]
  IC50: 200 nM

## CC(C)(C)c1cc(NC(=O)Nc2ccc(Oc3ccnc4[nH]c(=O)cnc34)cc2F)n(-c2ccccc2)n1
[3]
  IC50: 5 nM
[4]
  IC50: 40 nM
WM 266-4
  IC50: 15 nM

## OCCn1cc(-c2ccc3c(c2)CC/C3=N\O)c(-c2ccncc2)n1
A-375 [15]
  EC50: > 500 nM

## CC(C)(C)c1nc(-c2cccc(NS(=O)(=O)c3c(F)cccc3F)c2F)c(-c2ccnc(N)n2)s1 [DABRAFENIB]
SK-MEL-28
  IC50: 43 nM

## CNc1ncc2cc(-c3cc(NC(=O)NCCC(C)(C)C)c(F)cc3C)c(C)nc2n1 [LY-3009120]
[16]
  half-life: 67 h

## CCCS(=O)(=O)Nc1ccc(F)c(C(=O)c2c[nH]c3ncc(Cl)cc23)c1F [PLX-4720]
A-375 [5]
  IC50: 500 nM

## CN(C)CCOc1ccc(-c2nc(-c3ccncc3)c(-c3ccc4c(c3)CC/C4=N\O)[nH]2)cc1 [SB590885]
A-375 [17]
  IC50: 370 nM

## CNC(=O)c1cc(Oc2ccc(NC(=O)Nc3ccc(Cl)c(C(F)(F)F)c3)cc2)ccn1 [SORAFENIB]
SK-MEL-30
  IC50: 3900 nM

## COC(=O)Nc1nc2cc(C3(O)c4ccccc4C(=O)N3c3cc(Cl)ccc3C)ccc2[nH]1 (stereo not given) [XL-281]
SK-MEL19
  IC50: 200 nM
[4]
  IC50: 6 nM
[18]
  IC50: 2000 nM

## CCCS(=O)(=O)Nc1ccc(F)c(-n2cc(-c3cncnc3)c3nc(N(C)C4CCN(CC)CC4)ccc32)c1F [XP-102]
[19]
  IC50: 0.4 nM
[20]
  IC50: 0.6 nM
A-375 [21]
  IC50: 0.9 nM
[22]
  IC50: 0.5 nM
[23]
  IC50: 0.8 nM
